Reference: US6531600B1, “Treatment and compounds” (Beecham Group p.l.c., priority 1989, dated 2003)

Key:
[1] = target: c-AMP phosphodiesterase (erythrocytes); assay: Inhibition of cyclic AMP phosphodiesterase (erythrocyte extract, radiochemical procedure); assay type: biochemical; details: phosphodiesterase extracted from erythrocytes
Protocol: a) Inhibition of Cyclic AMP Phosphodiesterase
The phosphodiesterase was extracted by mixing the erythrocytes with 4 volumes of 7 mM phosphate buffer, pH7.4, followed by sonification (3×10 sec; 100 W) and then centrifuging for 30 min at 4200×g.
All supernatants were diluted in the extraction medium and assayed for phosphodiesterase activity within 6 hours of preparation, using the radiochemical procedure described in the above mentioned reference.

[2] = system: Sephadex induced eosinophilia; assay: Sephadex induced blood eosinophilia in the rat; assay type: in vivo; details: n = 12 or more
Protocol: b) Induction of blood eosinophilia and the effects of drugs.
Male Charles River Sprague Dawley rats weight between 250 to 300 g were used.
The method used was a modification of that described by Laycock et al (Int. Arch. Appl. Immunol, (1986). 81, 363).
Sephadex G200, particle size 40 to 120 micron, was suspended in isotonic saline at 0.5 mg/ml, and stored for 48 h at 4° C. 1 ml of the suspension was given intravenously to rats on days 0,2 and 5. A control group received saline. The test compound was given before the Sephadex on each occasion, with a contact time expected to give maximum activity at the time of the Sephadex administration. Blood was taken from the tail vein of the rats on day 7 for the determination of total and differential leucocyte counts.
A control group of at least 6 animals was included each time a compound was evaluated. The control group received Sephadex and the vehicle without test compound. The results in the drug treated animals were compared with the control group. Alternatively, if the mean for the control group for any experiment was not statistically different from the mean of the sum of all of the controls groups, then the treated animal results for that experiment were compared with the mean of the sum of all the control groups.
Total and differential leucocyte counts
20 μl samples of blood, taken from the tail vein of the rats, were added to 10 ml of Isoton II and, within 30 min, Zaponin (3 drops) was added, to lyse the erythrocytes. Five minutes later the total cell count was determined using a Coulter Counter Model DN. Differential leucocyte counts were carried out by fixing and staining a blood smear on a microscopic slide with May-Grunwald and Giemsa stains. A minimum of 400 cells were counted on each slide.
Probability values were calculated using the Student's t test.
The effect of the test compound upon Sephadex induced eosinophilia in the rat is set out in Table 3. The test compound was given orally 30 minutes before each injection of Sephadex.

[3] = 25.0 mg/kg orally 30 mins before each Sephadex i.v. injection

| Ki [1] [µM] | melting point | Molecule | also measured |
| --- | --- | --- | --- |
| 4.8 | 148 to 150 °C | O=c1c2[nH]c([N+](=O)[O-])nc2n(CC2CCCC2)c(=O)n1CC1CCCC1 [Example 4] | – |
| 1.3 | – | CCCCn1c(=O)c2[nH]c(N)nc2n(CCCC)c1=O.Cl [Example 7, 1,3-Di-n-butyl-8-amino xanthine hydrochloride] | % of Control Mean ± SEM (blood eosinophilia) [2, 3]: 91 ± 6 % of Control |
| 15.1 | – | O=c1c2[nH]c(Cl)nc2n(CC2CC2)c(=O)n1CC1CC1 [Example 17, 1,3-Di-cyclopropylmethyl-8-chloro xanthine] | – |
| < 100 | – | CCCCn1c(=O)c2[nH]c(N3CCCCC3)nc2n(CCCC)c1=O [Example 19, 1,3-Di-n-butyl-8-piperidino xanthine] | – |
| 7.9 | – | O=c1c2[nH]c(Br)nc2n(CC2CCCCC2)c(=O)n1CC1CCCCC1 [Example 25, 1,3-Di-cyclohexylmethyl-8-bromo xanthine] | – |
| 5.4 | 140 °C | O=c1c2[nH]c([N+](=O)[O-])nc2n(CC2CCCCC2)c(=O)n1CC1CCCCC1 [Example 5] | – |
| 55.9 | – | 1,3-Di-cyclopropylmethyl-8-piperidinyl xanthine [Example 23] | – |
| 0.53 | 124 °C (dec.) | Nc1nc2c([nH]1)c(=O)n(CC1CCC1)c(=O)n2CC1CCC1 [Example 10] | % of Control Mean ± SEM (blood eosinophilia) ([2]; 5.0 mg/kg orally 30 mins before each Sephadex i.v. injection): 47 ± 4 % of Control |
| 6.1 | 220 °C | O=c1c2[nH]c([N+](=O)[O-])nc2n(CC2CCC2)c(=O)n1CC1CCC1 [Example 3] | – |
| 11.5 | – | O=c1c2[nH]c(N3CCOCC3)nc2n(CC2CC2)c(=O)n1CC1CC1 [Example 20, 1,3-Di-cyclopropylmethyl-8-morpholino xanthine] | – |
| – | 89 °C | CCCCn1c(=O)c2[nH]c(N)nc2n(CCCC)c1=O [Example 8, 1,3-Di-n-butyl-8-amino xanthine] | – |
| 17 | – | CCCCn1c(=O)c2[nH]c([N+](=O)[O-])nc2n(CCCC)c1=O [Example 1, 1,3-Di-n-butyl-8-nitro xanthine] | % of Control Mean ± SEM (blood eosinophilia) [2, 3]: 109 ± 6 % of Control |
| 29.7 | – | 1,3-Di-cyclopropylmethyl-8-pyrrolidinyl xanthine [Example 22] | – |
| 14 | – | Nc1nc2c([nH]1)c(=O)n(C1CC1)c(=O)n2C1CC1 [Example 13, 1,3-Di-cyclopropyl-8-amino xanthine] | – |
| 23 | – | O=c1c2[nH]c(Cl)nc2n(C2CCCCC2)c(=O)n1C1CCCCC1 [Example 18, 1,3-Di-cyclohexyl-8-chloro xanthine] | – |
| 0.57 | 300 °C | Nc1nc2c([nH]1)c(=O)n(CC1CCCC1)c(=O)n2CC1CCCC1 [Example 11] | – |
| 15.9 | – | O=c1c2[nH]c([N+](=O)[O-])nc2n(CC2CC2)c(=O)n1CC1CC1 [Example 2, 1,3-Di-cyclopropylmethyl-8-nitro xanthine] | – |

| Molecule | Ki [1] [µM] | melting point | also measured |
| --- | --- | --- | --- |
| Nc1nc2c([nH]1)c(=O)n(CC1CC1)c(=O)n2CC1CC1 [Example 9, 1,3-Di-cyclopropylmethyl-8-amino xanthine] | 1.6 | – | % of Control Mean ± SEM (blood eosinophilia) ([2]; 0.2 mg/kg orally 30 mins before each Sephadex i.v. injection): 61 ± 8 % of Control; % of Control Mean ± SEM (blood eosinophilia) ([2]; 2.0 mg/kg orally 30 mins before each Sephadex i.v. injection): 48 ± 7 % of Control |
